According to patent publication US11040028B2, “Penicinotam derivative, preparation method and use thereof” (OCEAN UNIVERSITY OF CHINA, priority 2017, dated 2021):

What was measured:
Assay type in all cases: cell-based
[1] = test system: human hepatic stellate cells LX-2; test: Anti-fibrosis activity test: inhibition of proliferation of human hepatic stellate cells LX-2 (CCK-8); details: Homo sapiens, 48 h
Method: (§1) BHK-21 cells in exponential growth phase were selected. After the fusion growth reached 85-95%, normal passage method was utilized to digest and collect the cells, followed by cell counting and adjusting the cell density to 2×10^4 cells/mL. The cells were seeded into 96-well plates, 100 μL/well, and were incubated under the condition of 5% CO2 at 37° C.
(§2) The supernatant was removed after the cells had adhered to the wall for 24 hours. The culture solution containing the prepared compounds at different concentrations were added to the wells, 100 μL/well, each concentration in triplicate. The cells were subcultured for 48 hours after administration. Commercially available pirfenidone was employed as the positive control.
(§3) 10 μL of CCK-8 solution ( 1/10 of the volume of the culture solution) was added to each well 48 hours after the administration, and incubated for 2 hours. The absorbance (A) of each well was determined by a microplate reader at 450 nm wavelength. The inhibition rate against cell proliferation for each compound was calculated based on A, wherein inhibition rate against cell proliferation (inhibition ratio, IR)=(1−value of experimental group (Ai)/value of blank control group (Ao))×100% and the IC50 value of each compound was calculated by the data processing software.
(§4) Using the same protocol for the cell experiments, the inhibitory activity of the test compounds against the proliferation of human lung fibroblasts HFL1, human hepatic stellate cells LX-2, human fibrosarcoma cells HT-1080, human dermal fibroblasts CCC-ESF-1, human embryonic lung fibroblast IMR-90, cardiac fibroblast RAT-iCell-C002 was assayed.

[2] = test system: human embryonic lung fibroblast IMR-90; test: Anti-fibrosis activity test: inhibition of proliferation of human embryonic lung fibroblast IMR-90 (CCK-8)
Method: as §1, §2, §3, §4

[3] = test system: cardiac fibroblast RAT-iCell-C002; test: Anti-fibrosis activity test: inhibition of proliferation of cardiac fibroblast RAT-iCell-C002 (CCK-8); details: Cardiac fibroblast, 48 h
Method: as §1, §2, §3, §4

[4] = test system: BHK-21 cells; test: Anti-fibrosis activity test: inhibition of BHK-21 cell proliferation (CCK-8); details: Mesocricetus auratus, BHK-21, 48 h
Method: as §1, §2, §3

[5] = test system: human fibrosarcoma cells HT-1080; test: Anti-fibrosis activity test: inhibition of proliferation of human fibrosarcoma cells HT-1080 (CCK-8); details: Homo sapiens, HT-1080, 48 h
Method: as §1, §2, §3, §4

[6] = test system: human dermal fibroblasts CCC-ESF-1; test: Anti-fibrosis activity test: inhibition of proliferation of human dermal fibroblasts CCC-ESF-1 (CCK-8); details: Fibroblast
Method: as §1, §2, §3, §4

[7] = test system: human lung fibroblasts HFL1; test: Anti-fibrosis activity test: inhibition of proliferation of human lung fibroblasts HFL1 (CCK-8); details: Homo sapiens, HFL1, 48 h
Method: as §1, §2, §3, §4

[8] = human hepatic stellate cells LX-2, CCK-8, 48 hours
[9] = human embryonic lung fibroblast IMR-90, CCK-8, 48 hours
[10] = cardiac fibroblast RAT-iCell-C002, CCK-8, 48 hours
[11] = CCK-8, 48 hours after administration
[12] = human fibrosarcoma cells HT-1080, CCK-8, 48 hours
[13] = human dermal fibroblasts CCC-ESF-1, CCK-8, 48 hours
[14] = human lung fibroblasts HFL1, CCK-8, 48 hours
[15] = Homo sapiens, IMR-90 cells, 48 h, CCK-8
[16] = Homo sapiens, CCC-ESF-1 cells, 48 h, CCK-8

SMILES | IC50 [1, 8] [mM] | IC50 [2, 9] [mM] | IC50 [3, 10] [mM] | IC50 [4, 11] [mM] | IC50 [5, 12] [mM] | IC50 [6, 13] [mM] | IC50 [7, 14] [mM] | IC50 ([1]; LX-2, 48 h, LX-2 cells, CCK-8) [mM] | IC50 [2, 15] [mM] | IC50 ([3]; RAT-iCell-C002 cells, CCK-8) [mM] | IC50 ([4]; 48 h, CCK-8) [mM] | IC50 ([5]; HT-1080 cells, 48 h, CCK-8) [mM] | IC50 [6, 16] [mM] | IC50 ([7]; HFL1 cells, 48 h, CCK-8) [mM]
N#Cc1ccc(COc2c3c(nc4cc(N5CCNCC5)c(C#N)cc24)-c2cccn2C3=O)cc1 [Compound 641b, 9-((4-cyanobenzyl)oxy)-10-oxo-6-(piperazin-1-yl)-10H-pyrrolizino[1,2-b]quinoline-7-carbonitrile] | 0.05 to 5 | 0.05 to 5 | 0.05 to 5 | 0.05 to 5 | 0.05 to 5 | 0.05 to 5 | 0.05 to 5 |  |  |  |  |  |  | 
N#Cc1cc2c(=O)c3c(n(Cc4ccc(C(F)(F)F)cc4)c2cc1N1CCNCC1)-c1cccn1C3=O [Compound 642a, 9,10-Dioxo-6-(piperazin-1-yl)-4-(4-(trifluoromethyl)benzyl)-4,10-dihydro-9H-pyrrolizino[1,2-b]quinoline-7-carbonitrile] | 0.05 to 5 | 0.05 to 5 | 0.05 to 5 | 0.05 to 5 | 0.05 to 5 | < 0.05 | 0.05 to 5 |  |  |  |  |  |  | 
N#Cc1cc2c(OCc3ccc(C(F)(F)F)cc3)c3c(nc2cc1N1CCNCC1)-c1cccn1C3=O [Compound 642b, 10-oxo-6-(piperazin-1-yl)-9-((4-(trifluoromethyl)benzyl)oxy)-10H-pyrrolizino[1,2-b]quinoline-7-carbonitrile] | 0.05 to 5 | 0.05 to 5 | 0.05 to 5 | 0.05 to 5 | 0.05 to 5 | 0.05 to 5 | 0.05 to 5 |  |  |  |  |  |  | 
N#Cc1cc2c(=O)c3c(n(Cc4ccc(-c5ccccc5)cc4)c2cc1N1CCNCC1)-c1cccn1C3=O [Compound 643a, 4-([1,1′-Biphenyl]-4-ylmethyl)-9,10-dioxo-6-(piperazin-1-yl)-4,10-dihydro-9H-pyrrolizino[1,2-b]quinoline-7-carbonitrile] | 0.05 to 5 | 0.05 to 5 | 0.05 to 5 | < 0.05 | 5 to 20 | 0.05 to 5 | 0.05 to 5 |  |  |  |  |  |  | 
N#Cc1cc2c(OCc3ccc(-c4ccccc4)cc3)c3c(nc2cc1N1CCNCC1)-c1cccn1C3=O [Compound 643b, 9-([1,1′-biphenyl]-4-ylmethoxy)-10-oxo-6-(piperazin-1-yl)-10H-pyrrolizino[1,2-b]quinoline-7-carbonitrile] | 0.05 to 5 | 0.05 to 5 | 0.05 to 5 | 0.05 to 5 | < 0.05 | 0.05 to 5 | 0.05 to 5 |  |  |  |  |  |  | 
N#Cc1ccccc1-c1ccc(Cn2c3c(c(=O)c4cc(C#N)c(N5CCNCC5)cc42)C(=O)n2cccc2-3)cc1 [Compound 644a, 4-((2′-Cyano-[1,1′-biphenyl]-4-yl)methyl)-9,10-dioxo-6-(piperazin-1-yl)-4,10-dihydro-9H-pyrrolizino[1,2-b]quinoline-7-carbonitrile] | 0.05 to 5 | 0.05 to 5 | 0.05 to 5 | 0.05 to 5 | 0.05 to 5 | 0.05 to 5 | 0.05 to 5 |  |  |  |  |  |  | 
N#Cc1ccccc1-c1ccc(COc2c3c(nc4cc(N5CCNCC5)c(C#N)cc24)-c2cccn2C3=O)cc1 [Compound 644b, 9-((2′-cyano-[1,1′-biphenyl]-4-yl)methoxy)-10-oxo-6-(piperazin-1-yl)-10H-pyrrolizino[1,2-b]quinoline-7-carbonitrile] | 0.05 to 5 | 0.05 to 5 | 0.05 to 5 | 0.05 to 5 | 0.05 to 5 | 0.05 to 5 | 0.05 to 5 |  |  |  |  |  |  | 
O=C1c2c(n(Cc3ccccc3Cl)c3cccc(Cl)c3c2=O)-c2cccn21 [Compound 645a, 8-Chloro-4-(2-chlorobenzyl)-9H-pyrrolizino[1,2-b]quinoline-9,10(4H)-dione] | 0.05 to 5 | 0.05 to 5 | 0.05 to 5 | 0.05 to 5 | 0.05 to 5 | < 0.05 | 0.05 to 5 |  |  |  |  |  |  | 
O=C1c2c(nc3cccc(Cl)c3c2OCc2ccccc2Cl)-c2cccn21 [Compound 645b, 8-chloro-9-((2-chlorobenzyl)oxy)-10H-pyrrolizino[1,2-b]quinolin-10-one] | 0.05 to 5 | 0.05 to 5 | 0.05 to 5 | 0.05 to 5 | 0.05 to 5 | 0.05 to 5 | 0.05 to 5 |  |  |  |  |  |  | 
O=C1c2c(n(Cc3ccc(F)cc3)c3cc(N4CCNCC4)cc(F)c3c2=O)-c2cccn21 [Compound 646a, 8-Fluoro-4-(4-fluorobenzyl)-6-(piperazin-1-yl)-9H-pyrrolizino[1,2-b]quinoline-9,10(4H)-dione] | 0.05 to 5 | 0.05 to 5 | 0.05 to 5 | 0.05 to 5 | 0.05 to 5 | 0.05 to 5 | 0.05 to 5 |  |  |  |  |  |  | 
O=C1c2c(nc3cc(N4CCNCC4)cc(F)c3c2OCc2ccc(F)cc2)-c2cccn21 [Compound 646b, 8-fluoro-9-((4-fluorobenzyl)oxy)-6-(piperazin-1-yl)-10H-pyrrolizino[1,2-b]quinolin-10-one] | 0.05 to 5 | 0.05 to 5 | 0.05 to 5 | 0.05 to 5 | 0.05 to 5 | 0.05 to 5 | 0.05 to 5 |  |  |  |  |  |  | 
O=C1c2c(n(Cc3ccc(Cl)cc3)c3cc(N4CCNCC4)cc(F)c3c2=O)-c2cccn21 [Compound 647a, 4-(4-Chlorobenzyl)-8-fluoro-6-(piperazin-1-yl)-9H-pyrrolizino[1,2-b]quinoline-9,10(4H)-dione] | 0.05 to 5 | 0.05 to 5 | 0.05 to 5 | 0.05 to 5 | 0.05 to 5 | 0.05 to 5 | 0.05 to 5 |  |  |  |  |  |  | 
O=C1c2c(nc3cc(N4CCNCC4)cc(F)c3c2OCc2ccc(Cl)cc2)-c2cccn21 [Compound 647b, 9-((4-chlorobenzyl)oxy)-8-fluoro-6-(piperazin-1-yl)-10H-pyrrolizino[1,2-b]quinolin-10-one] | 0.05 to 5 | 0.05 to 5 | 0.05 to 5 | 0.05 to 5 | 0.05 to 5 | 0.05 to 5 | 0.05 to 5 |  |  |  |  |  |  | 
Cc1ccc2n1C(=O)c1c-2[nH]c2ccccc2c1=O [Compound 800a, 1-Methyl-9H-pyrrolizino[1,2-b]quinoline-9,10(4H)-dione] |  |  |  |  |  |  |  | 0.05 to 5 | 0.05 to 5 | 0.05 to 5 | 0.05 to 5 | 0.05 to 5 | 0.05 to 5 | 0.05 to 5
Cc1ccc2n1C(=O)c1c-2nc2ccccc2c1O [Compound 800b, 9-hydroxy-1-methyl-10H-pyrrolizino[1,2-b]quinolin-10-one] |  |  |  |  |  |  |  | 0.05 to 5 | 0.05 to 5 | 0.05 to 5 | 0.05 to 5 | 0.05 to 5 | 0.05 to 5 | 0.05 to 5
Cc1cc2n(c1)C(=O)c1c-2[nH]c2ccccc2c1=O [Compound 801a, 2-Methyl-9H-pyrrolizino[1,2-b]quinoline-9,10(4H)-dione] |  |  |  |  |  |  |  | 0.05 to 5 | 0.05 to 5 | 0.05 to 5 | < 0.05 | 0.05 to 5 | 0.05 to 5 | 0.05 to 5
